In US20100292335A1, “USE OF ORGANIC COMPOUNDS” (priority 2007, published 2010):

System: bradykinin peptides BK-(1-7), BK-(1-9)
Assay: Bradykinin peptide levels in blood and tissues of non-diabetic and streptozotocin-diabetic (mRen-2)27 rats after 16 weeks aliskiren
Assay type: in vivo, transgenic (mRen-2)27 rats
Conditions: for Effect of aliskiren on BK-(1-7) level / Effect of aliskiren on BK-(1-9) level / Effect of aliskiren on BK-(1-7)/(1-9) ratio: 10 mg/kg/day 16 weeks, 10 mg/kg/day; for Heart BK-(1-7), Mean ± SEM / Heart BK-(1-7)/(1-9) ratio, Mean ± SEM / Heart BK-(1-9), Mean ± SEM: aliskiren 10 mg/kg/day 16 weeks
Procedure: As an example, diabetes is induced in 6 week old female heterozygous transgenic (mRen-2)27 rats by administration of 55 mg/kg streptozotocin diluted in […], pH 4.5 by tail vein injection. Non-diabetic rats are injected with citrate buffer alone [Campbell D J, Kelly D J, Wilkinson-Berka J L, Cooper M E, Skinner S L. Increased bradykinin and “normal” angiotensin peptide levels in diabetic Sprague-Dawley and transgenic (mRen-2)27 rats. Kidney Int 1999; 56:211-221.1. Diabetic and non-diabetic rats are randomized to receive either no drug or aliskiren (10 mg/kg/day by osmotic minipump) from 6-7 weeks of age for a duration of 16 weeks. The minipumps are changed every 2 weeks and the amount of aliskiren in the minipumps is adjusted according to the body weight of the rats. Diabetic rats are injected subcutaneously with 2-4 units insulin (Ultratard, Novo Nordisk, Denmark).every second day (3 times a week). If rats have continuously elevated blood glucose levels (>33.3 mmol/L) over a couple of weeks, they are injected with 3 units every day. When glucose levels decrease to 33.3 mmol/L they are administered 2-4 units insulin every second day. After 16 weeks drug treatment, rats are anesthetized with ketamine (75 mg/kg) and xylazine (10 mg/kg) in combination, and blood and tissue is collected for peptide assay. Peptides are measured as previously described [Lawrence A C, Evin G, Kladis A, Campbell D J. An alternative strategy for the radioimmunoassay of angiotensin peptides using amino-terminal-directed antisera: measurement of eight angiotensin peptides in human plasma. J Hypertens 1990; 8:715-724; Campbell D J, Lawrence A C, Towrie A, Kladis A, Valentijn A J. Differential regulation of angiotensin peptide levels in plasma and kidney of the rat. Hypertension 1991; 18:763-773; Campbell D J, Kladis A, Duncan A-M. Nephrectomy, converting enzyme inhibition and angiotensin peptides. Hypertension 1993; 22:513-522; Campbell D J, Kladis A, Duncan A-M. Bradykinin peptides in kidney, blood, and other tissues of the rat. Hypertension 1993; 21:155-165; Campbell D J, Kladis A, Duncan A-M. Effects of converting enzyme inhibitors on angiotensin and bradykinin peptides. Hypertension 1994; 23:439-449; Campbell D J, Rong P, Kladis A, Rees B, Skinner S L. Angiotensin and bradykinin peptides in the TGR(mRen-2)27 rat. Hypertension 1995; 25:1014-1020]. Only the left kidney is collected for peptide assay. The heart refers to the cardiac ventricles (both right and left ventricle). The Ang I levels in heart are below the limit of detection of the assay.
There are 4 groups of rats: • 1. Non-diabetic control. • 2. Non-diabetic administered aliskiren 10 mg/kg/day. • 3. Diabetic control. • 4. Diabetic administered aliskiren 10 mg/kg/day.

[1] = Heart, control rats, listed as Aliskiren
[2] = Heart, diabetic rats, listed as Aliskiren

Question: How did the “Effect of aliskiren on BK-(1-7) level” value (Blood, control rats) turn out when `COCCCOc1cc(C[C@@H](C[C@H](N)[C@@H](O)C[C@H](C(=O)NCC(C)(C)C(N)=O)C(C)C)C(C)C)ccc1OC` [aliskiren, 2(S),4(S),5(S),7(S)-N-(3-amino-2,2-dimethyl-3-oxopropyl)-2,7-di(1-methylethyl)-4-hydroxy-5-amino-8-[4-methoxy-3-(3-methoxy-propoxy)phenyl]-octanamide] was run?
Answer: does not affect

Question: What about the “Effect of aliskiren on BK-(1-9) level” value (Blood, control rats) of the same molecule?
Answer: does not affect

Question: What about the “Effect of aliskiren on BK-(1-7) level” value (Blood, diabetic rats) of the same molecule?
Answer: does not affect

Question: And the “Effect of aliskiren on BK-(1-7)/(1-9) ratio” value (Blood, diabetic rats)?
Answer: increase

Question: What about the “Effect of aliskiren on BK-(1-9) level” value (Blood, diabetic rats) of the same molecule?
Answer: does not affect

Question: And the “Effect of aliskiren on BK-(1-7) level” value (Brain, control rats)?
Answer: does not affect

Question: What about the “Effect of aliskiren on BK-(1-9) level” value (Brain, control rats) of the same molecule?
Answer: does not affect

Question: What about the “Effect of aliskiren on BK-(1-7) level” value (Brain, diabetic rats) of the same molecule?
Answer: does not affect

Question: And the “Effect of aliskiren on BK-(1-9) level” value (Brain, diabetic rats)?
Answer: does not affect

Question: And the “Effect of aliskiren on BK-(1-7) level” value (Heart, control rats)?
Answer: increased

Question: And the “Effect of aliskiren on BK-(1-7)/(1-9) ratio” value (Heart, control rats)?
Answer: did not affect

Question: What about the “Effect of aliskiren on BK-(1-9) level” value (Heart, control rats) of the same molecule?
Answer: increased

Question: What about the “Effect of aliskiren on BK-(1-7) level” value [1] of the same molecule?
Answer: increase

Question: What about the “Effect of aliskiren on BK-(1-7)/(1-9) ratio” value [1] of the same molecule?
Answer: no change

Question: And the “Effect of aliskiren on BK-(1-9) level” value [1]?
Answer: increase

Question: What about the “Heart BK-(1-7), Mean ± SEM” value (Heart, control rats) of the same molecule?
Answer: 19.2 ± 2.5 fmol/g

Question: And the “Heart BK-(1-7)/(1-9) ratio, Mean ± SEM” value (Heart, control rats)?
Answer: 1.88 ± 0.18 mol/mol

Question: What about the “Heart BK-(1-9), Mean ± SEM” value (Heart, control rats) of the same molecule?
Answer: 10.6 ± 1.2 fmol/g

Question: What about the “Effect of aliskiren on BK-(1-7) level” value (Heart, diabetic rats) of the same molecule?
Answer: increased

Question: And the “Effect of aliskiren on BK-(1-7)/(1-9) ratio” value (Heart, diabetic rats)?
Answer: did not affect

Question: What about the “Effect of aliskiren on BK-(1-9) level” value (Heart, diabetic rats) of the same molecule?
Answer: increased

Question: And the “Effect of aliskiren on BK-(1-7) level” value [2]?
Answer: increase

Question: What about the “Effect of aliskiren on BK-(1-7)/(1-9) ratio” value [2] of the same molecule?
Answer: no change

Question: What about the “Effect of aliskiren on BK-(1-9) level” value [2] of the same molecule?
Answer: increase

Question: What about the “Heart BK-(1-7), Mean ± SEM” value (Heart, diabetic rats) of the same molecule?
Answer: 13.9 ± 1.5 fmol/g

Question: And the “Heart BK-(1-7)/(1-9) ratio, Mean ± SEM” value (Heart, diabetic rats)?
Answer: 2.47 ± 0.37 mol/mol

Question: What about the “Heart BK-(1-9), Mean ± SEM” value (Heart, diabetic rats) of the same molecule?
Answer: 6.4 ± 0.7 fmol/g

Question: And the “Effect of aliskiren on BK-(1-7) level” value (Kidney, control rats)?
Answer: does not affect

Question: And the “Effect of aliskiren on BK-(1-9) level” value (Kidney, control rats)?
Answer: does not affect

Question: What about the “Effect of aliskiren on BK-(1-7) level” value (Kidney, diabetic rats) of the same molecule?
Answer: does not affect

Question: What about the “Effect of aliskiren on BK-(1-9) level” value (Kidney, diabetic rats) of the same molecule?
Answer: does not affect

Question: What about the “Effect of aliskiren on BK-(1-7) level” value (Lung, control rats) of the same molecule?
Answer: does not affect

Question: What about the “Effect of aliskiren on BK-(1-9) level” value (Lung, control rats) of the same molecule?
Answer: does not affect

Question: And the “Effect of aliskiren on BK-(1-7) level” value (Lung, diabetic rats)?
Answer: does not affect

Question: What about the “Effect of aliskiren on BK-(1-9) level” value (Lung, diabetic rats) of the same molecule?
Answer: does not affect
